{
  "source": "patent US20250230193A1",
  "about": "“CYCLIC COMPOUND HAVING SELECTIVE KRAS INHIBITORY EFFECT ON HRAS AND NRAS” (CHUGAI SEIYAKU KABUSHIKI KAISHA, priority 2022, published 2025)",
  "key": {"[1]": {"target": "GDP-bound NRAS wild-type protein (Homo sapiens, UniProt P01111)", "sequence (P01111 whole entry)": "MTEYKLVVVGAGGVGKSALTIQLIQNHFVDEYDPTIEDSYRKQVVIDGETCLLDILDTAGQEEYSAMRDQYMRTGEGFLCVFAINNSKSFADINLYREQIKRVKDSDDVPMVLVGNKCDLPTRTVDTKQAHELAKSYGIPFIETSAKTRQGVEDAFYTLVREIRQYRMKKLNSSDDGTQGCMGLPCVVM", "experiment": "Binding to NRAS by surface plasmon resonance (SPR), Single Cycle Kinetics"}, "[2]": {"target": "GDP-bound HRAS wild-type protein (Homo sapiens, UniProt P01112)", "sequence (P01112 whole entry)": "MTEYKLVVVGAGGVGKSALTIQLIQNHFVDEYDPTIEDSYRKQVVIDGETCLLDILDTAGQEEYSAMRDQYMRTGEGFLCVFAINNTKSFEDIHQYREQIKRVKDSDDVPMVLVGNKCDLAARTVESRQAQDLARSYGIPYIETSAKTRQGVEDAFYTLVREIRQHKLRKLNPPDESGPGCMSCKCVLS", "experiment": "Binding to HRAS by surface plasmon resonance (SPR), Single Cycle Kinetics"}, "[3]": {"conditions": "KD ratio, GDP-bound NRAS wild-type vs GDP-bound KRAS wild-type, SPR"}, "[4]": {"conditions": "KD ratio, GDP-bound HRAS wild-type vs GDP-bound KRAS wild-type, SPR"}, "[5]": {"conditions": "SPR, GDP-bound wild-type proteins"}},
  "data": [
    {"smiles": "CCO[C@@H]1C[C@H]2C(=O)NC3(CCC3)C(=O)N(C)[C@@H](C3CCCC3)C(=O)N(C)[C@H](C(=O)N3CCOCC3)CC(=O)N(C)[C@@H](CC(C)C)C(=O)N[C@@H]([C@H](C)CC)C(=O)N(C)CC(=O)N(C)[C@H]3CCCCCN(C3=O)[C@@H](Cc3ccc(C(F)(F)F)cc3)C(=O)N(C)CC(=O)N[C@@H](CCc3cc(F)c(C(F)(F)F)c(F)c3)C(=O)N2C1", "note": "[PP0815]", "values": [
      {"measurement": "NRAS/KRAS (ratio of KD value with respect to NRAS to KD value with respect to KRAS)", "setting": "[1]; [3]", "value": "B (a compound having 3 or more and less than 10 is denoted as B)"},
      {"measurement": "HRAS/KRAS (ratio of KD value with respect to HRAS to KD value with respect to KRAS)", "setting": "[2]; [4]", "value": "B (a compound having 3 or more and less than 10 is denoted as B)"}
    ]},
    {"smiles": "CC[C@H](C)[C@@H]1NC(=O)[C@H](CC(C)C)N(C)C(=O)C[C@@H](C(=O)N2CCOCC2)N(C)C(=O)[C@H](C2CCCC2)N(C)C(=O)C2(CCCC2)NC(=O)[C@@H]2CCCN2C(=O)[C@H](CCc2cc(F)c(C(F)(F)F)c(F)c2)NC(=O)CN(C)C(=O)[C@H](Cc2ccc(F)cc2)N2CCCCC[C@@H](C2=O)N(C)C(=O)CN(C)C1=O", "note": "[PP0964]", "values": [
      {"measurement": "NRAS/KRAS (ratio of KD value with respect to NRAS to KD value with respect to KRAS)", "setting": "[1]; [3]", "value": "B (a compound having 3 or more and less than 10 is denoted as B)"},
      {"measurement": "HRAS/KRAS (ratio of KD value with respect to HRAS to KD value with respect to KRAS)", "setting": "[2]; [4]", "value": "B (a compound having 3 or more and less than 10 is denoted as B)"}
    ]},
    {"smiles": "CCC[C@H]1C(=O)N[C@@H]([C@@H](C)CC)C(=O)N(C)CC(=O)N(C)[C@H]2C/C=C\\CCN(C2=O)[C@@H](Cc2ccc(C)cc2)C(=O)N(C)CC(=O)N[C@@H](CCc2cc(F)c(C(F)(F)F)c(F)c2)C(=O)N2C[C@H](OCC)C[C@H]2C(=O)NC2(CC(C)(C)C2)C(=O)N(C)[C@@H](CC(C)C)C(=O)N(C)[C@H](C(=O)N(C)C)CC(=O)N1C", "note": "[PP2995]", "values": [
      {"measurement": "NRAS/KRAS (ratio of KD value with respect to GDP-bound NRAS wild-type protein to KD value with respect to KRAS)", "setting": "[1]; [5]", "value": "A (a compound having 10 or more and less than 20 is denoted as A)"},
      {"measurement": "HRAS/KRAS (ratio of KD value with respect to GDP-bound HRAS wild-type protein to KD value with respect to KRAS)", "setting": "[2]; [5]", "value": "A (a compound having 10 or more and less than 20 is denoted as A)"}
    ]},
    {"smiles": "CC[C@H](C)[C@@H]1NC(=O)[C@H](COC)N(C)C(=O)C[C@@H](C(=O)N(C)C)N(C)C(=O)[C@H](C2CCCCC2)N(C)C(=O)C2(CC(C)(C)C2)NC(=O)[C@@H]2C[C@@H](OC(C)C)CN2C(=O)[C@H](CCc2cc(F)c(C(F)(F)F)c(F)c2)NC(=O)CN(C)C(=O)[C@H](Cc2ccc(C)cc2)N2CC/C=C\\C[C@@H](C2=O)N(C)C(=O)CN(C)C1=O", "note": "[PP2660]", "values": [
      {"measurement": "NRAS/KRAS (ratio of KD value with respect to GDP-bound NRAS wild-type protein to KD value with respect to KRAS)", "setting": "[1]; class symbols", "value": "A (a compound having 10 or more and less than 20 is denoted as A)"},
      {"measurement": "HRAS/KRAS (ratio of KD value with respect to GDP-bound HRAS wild-type protein to KD value with respect to KRAS)", "setting": "[2]; class symbols", "value": "A (a compound having 10 or more and less than 20 is denoted as A)"}
    ]},
    {"smiles": "CCO[C@@H]1C[C@H]2C(=O)NC3(CCC3)C(=O)N(C)[C@@H](C3CCCC3)C(=O)N(C)[C@H](C(=O)N(C)C)CC(=O)N(C)[C@@H](Cc3ccc(Cl)c(Cl)c3)C(=O)N[C@@H]([C@@H](C)CC)C(=O)N(C)CC(=O)N(C)[C@H]3CCCCCN(C3=O)[C@@H](Cc3ccc(F)cc3)C(=O)N(C)CC(=O)N[C@@H](CCc3cc(F)c(C(F)(F)F)c(F)c3)C(=O)N2C1", "note": "[PP1158]", "values": [
      {"measurement": "NRAS/KRAS (ratio of KD value with respect to NRAS to KD value with respect to KRAS)", "setting": "[1]; [3]", "value": "B (a compound having 3 or more and less than 10 is denoted as B)"},
      {"measurement": "HRAS/KRAS (ratio of KD value with respect to HRAS to KD value with respect to KRAS)", "setting": "[2]; [4]", "value": "B (a compound having 3 or more and less than 10 is denoted as B)"}
    ]},
    {"smiles": "CCO[C@@H]1C[C@H]2C(=O)NC3(CC=CC3)C(=O)N(C)[C@@H](C3CCCC3)C(=O)N(C)[C@H](C(=O)N(C)C)CC(=O)N(C)[C@@H](C)C(=O)N[C@@H]([C@@H](C)CC)C(=O)N(C)CC(=O)N(C)[C@H]3CCCCCN(C3=O)[C@@H](Cc3ccc(C(F)(F)F)cc3)C(=O)N(C)CC(=O)N[C@@H](CCc3cc(F)c(C(F)(F)F)c(F)c3)C(=O)N2C1", "note": "[PP0724]", "values": [
      {"measurement": "NRAS/KRAS (ratio of KD value with respect to GDP-bound NRAS wild-type protein to KD value with respect to KRAS)", "setting": "[1]; SPR", "value": "B (a compound having 3 or more and less than 10 is denoted as B)"},
      {"measurement": "HRAS/KRAS (ratio of KD value with respect to GDP-bound HRAS wild-type protein to KD value with respect to KRAS)", "setting": "[2]; SPR", "value": "B (a compound having 3 or more and less than 10 is denoted as B)"}
    ]},
    {"smiles": "CCC[C@H]1C(=O)N[C@@H]([C@H](C)CC)C(=O)N(C)CC(=O)N(C)[C@H]2C/C=C\\CCN(C2=O)[C@@H](Cc2ccc(C)cc2)C(=O)N(C)CC(=O)N[C@@H](CCc2ccc(C(F)(F)F)c(Cl)c2)C(=O)N2C[C@H](OCC)C[C@H]2C(=O)NC2(CC(C)(C)C2)C(=O)N(C)[C@@H](C2CCCC2)C(=O)N(C)[C@H](C(=O)N(C)C)CC(=O)N1C", "note": "[PP2221]", "values": [
      {"measurement": "NRAS/KRAS (ratio of KD value with respect to NRAS to KD value with respect to KRAS)", "setting": "[1]; SPR, GDP-bound NRAS wild-type vs GDP-bound KRAS wild-type", "value": "A (a compound having 10 or more and less than 20 is denoted as A)"},
      {"measurement": "HRAS/KRAS (ratio of KD value with respect to HRAS to KD value with respect to KRAS)", "setting": "[2]; SPR, GDP-bound HRAS wild-type vs GDP-bound KRAS wild-type", "value": "A (a compound having 10 or more and less than 20 is denoted as A)"}
    ]},
    {"smiles": "C#CC[C@H]1C(=O)N[C@@H]([C@@H](C)CC)C(=O)N(C)CC(=O)N(C)[C@H]2C/C=C\\CCN(C2=O)[C@@H](Cc2ccc(C(F)(F)F)cc2)C(=O)N(C)CC(=O)N[C@@H](CCc2cc(F)c(C(F)(F)F)c(F)c2)C(=O)N2C[C@H](F)C[C@H]2C(=O)NC2(CC(C)(C)C2)C(=O)N(C)[C@@H](C2CCCC2)C(=O)N(C)[C@H](C(=O)N(C)CC)CC(=O)N1C", "note": "[PP1691]", "values": [
      {"measurement": "NRAS/KRAS (ratio of KD value for NRAS to KD value for KRAS)", "setting": "[1]; [3]", "value": "A (a compound having 10 or more and less than 20 is denoted as A)"},
      {"measurement": "HRAS/KRAS (ratio of KD value for HRAS to KD value for KRAS)", "setting": "[2]; [4]", "value": "A (a compound having 10 or more and less than 20 is denoted as A)"}
    ]}
  ]
}
